Series [1] concerns w794 DNA. The series is described as follows: DNA alkylation studies, cell-free (thermally induced strand cleavage, PAGE autoradiography). In kind it is biochemical. To be noted: for DNA alkylation: no deliberate activation. How it is done: DNA-agent incubation at 23° C. for 2 hours (h), removal of unbound agent by EtOH precipitation, and 30 minute thermolysis (100° C.) followed by 8% denaturing PAGE and autoradiography. Lane 1, control DNA; lanes 2-5, Sanger G, C, A, and T sequencing reactions; lane 6, Compound (+)-4 (1×10^−5 M); lane 7, Compound (+)-7 (1×10^−5 M); lanes 8-9, Compound (+)-7 (1×10^−5 M) incubated at 37° C. with 1 M L-glutathione for 12 hours and 24 hours.
DNA-agent incubation at 23° C. for 2 hours (h), removal of unbound agent by EtOH precipitation, and 30 minutes thermolysis (100° C.) followed by 8% denaturing PAGE and autoradiography.
Lane 1, control DNA; lanes 2-5, Sanger G, C, A, and T sequencing reactions; lanes 6-8, Compound (+)-4 (1×10^−4 to 1×10^−6 M); lanes 9-11, Compound (+)-6 (1×10^−2 to 1×10^−4 M).
Lane 1, control DNA; lanes 2-5, Sanger G, C, A, and T sequencing reactions; lanes 6-11, Compound (+)-4 (1×10^−4M, t=2, 4, 6, 8, 24, 48 hours); lanes 12-15, Compound (+)-6 (1×10^−2M, t=2, 4, 6, 8 hours).
Lane 1, control DNA; lanes 2-5, Sanger G, C, A, and T sequencing reactions; lane 6, Compound (+)-4 (1×10^−4 M); lanes 7-9, Compound (±)-19 (1×10^−3 to 1×10^−5 M).
See Boger et al., Tetrahedron 1991, 47:2661-2682 for full details of the DNA alkylation assay. The DNA alkylation reactions were conducted at […] with 5′-^32P-end-labeled w794 DNA, which contains a single major alkylation site for the natural products.

Series [2] has as its system L1210 (ATCC CCL-219) mouse lymphocytic leukemia cells. The series is described as follows: Cell growth inhibition assay (phosphatase readout). In kind it is cell-based. How it is done: Compounds were tested for their cell growth inhibition of L1210 (ATCC CCL-219) mouse lymphocytic leukemia cells. A population of cells (>1×10^6 cells/mL as determined with a hemocytometer) was diluted with an appropriate amount of Dulbecco-modified Eagle Medium (DMEM, Gibco) containing 10% fetal bovine serum (FBS, Gibco) to a final concentration of 30,000 cells/mL. To each well of a 96-well plate (Corning® Costar®), 100 μL of the cell-media solution was added with a multichannel pipette. The cultures were incubated at 37° C. in an atmosphere of 5% CO2 and 95% humidified air for 24 hours. The test compounds were added to the plate as follows: test substances were diluted in DMSO to a concentration of 1 mM and 10-fold serial dilutions were performed on a separate 96-well plate. Fresh culture medium (100 μL) was added to each well of cells to constitute 200 μL of medium per well followed by 2 μL of each test agent. Compounds were tested in duplicate (≧2 times) at six concentrations between 0-100 nM or 0-1000 nM. Following addition, cultures were incubated for an additional 72 hours.
A phosphatase assay was used to establish the IC50 values as follows: the media in each cell was removed and 100 μL of phosphatase solution (100 mg phosphatase substrate in 30 mL 0.1 M NaOAc, pH 5.5, 0.1% Triton® X-100 buffer) was added to each well. The plates were incubated at 37° C. for 5 minutes. After the given incubation time, 50 μL of 0.1 N NaOH was added to each well and the absorption at 405 nm was determined using a 96 well plate reader. As the absorption is directly proportional to the number of living cells, the IC50 values were calculated and the reported values represent of the average of ≧4 determinations (SD±10%).

The test system of series [3] is L1210 murine leukemia cells. The series is described as follows: In vivo antitumor activity, L1210 implanted ip in B6D2F1 mice. More on the design: species or system mouse. How it is done: [Wolfe et al., J. Med. Chem. 2012, 55:5878-5886.] Therefore, the preliminary evaluation of the in vivo antitumor activity of the cyclic N—O pro-drugs was assessed with Compound (+)-6 and was conducted alongside seco-CBI-indole2 (Compound 4) in an antitumor model consisting of L1210 murine leukemia cells implanted ip in B6D2F1 mice traditionally used to initially compare new duocarmycin derivatives (Table 3, below).
B6D2F1 mice were injected intraperitoneally (i.p.) with syngeneic L1210 cells (1×10^6) on day 0. Ten mice were randomly assigned to control vehicle or treatment groups for Compounds (+)-4 and (+)-6 at doses of 60, 100, 250, and 500 μg/kg/inj for Compounds (+)-4 or 60, 200, 500, 1000, and 2500 μg/kg/inj for Compounds (+)-6. Compounds (+)-4 and (+)-6 were formulated in 100% DMSO. Both compounds were injected i.p. on days 1, 5, and 9. Following injection of tumor cells, animals were monitored daily and weighed two times per week. Percent survival (T/C) for treated and control groups were determined by dividing the total survival days for each treatment group by the total survival days for the control group and multiplying×100. All animal studies were carried out in the animal facilities of The University of Kansas Medical Center with strict adherence to the guidelines of the IACUC Animal Welfare Committee of KUMC (IACUC approval #2009-1837).

The nature of series [4]: Stability to basic conditions (NaHCO3). In kind it is physicochemical. The settings on record: 23° C.
Series [5] is described as follows: physchem. The settings on record: buffer.
Setting [6] is: Mus musculus, L1210, 72 h, read-out: IC50 L1210 natural, natural enantiomer, 72 hours.
[7] abbreviates: Mus musculus, L1210, 72 h, read-out: IC50 L1210 unnatural, unnatural enantiomer, 72 hours.
Where [8] appears, read: 60 μg/kg i.p. on days 1, 5 and 9.
Setting [9] is: 100 μg/kg i.p. on days 1, 5 and 9.
[10] abbreviates: 250 μg/kg i.p. on days 1, 5 and 9.
Where [11] appears, read: 500 μg/kg i.p. on days 1, 5 and 9.
The mark [12] stands for this setting: 1000 μg/kg i.p. on days 1, 5 and 9.
Setting [13] is: 2500 μg/kg i.p. on days 1, 5 and 9.

Molecules are shown by their SMILES. pIC50: −log10 of the molar value. “Also recorded” adds a separate entry of the source. Read-outs that look alike come from different tables or passages of the source.

By pIC50 is commonly meant −log10 of the IC50, conventionally taken in molar units. Regarding `CNC(=O)c1cccc2c3c(cc(O)c12)N(C(=O)c1cc2cc(NC(=O)c4cc5ccccc5[nH]4)ccc2[nH]1)CC3CCl` (racemic) [Compound 19, 3-(5-(1H-Indole-2-carboxamido)-1H-indole-2-carbonyl)-1-(chloromethyl)-5-hydroxy-N-methyl-1,2-dihydrobenzo-[e]indole-6-carboxamide], the DNA alkylation result in series [1] is given as “alkylate DNA in a manner analogous to Compound (+)-4”. Also, the “times less potent than seco-(+)-CBI-indole2” value in series [2] (L1210, racemic mixture) came out at 2.5 times. Further, the pIC50 in series [2] (Mus musculus, L1210, 72 h, read-out: IC50 L1210, tested as a racemic mixture, 72 hours) was 10.14.
With `CC(C)(C)OC(=O)N1CC2CC23C1=CC(=O)c1ccccc13` (single isomer, unassigned; (+)) [(+)-N—Boc-CBI, reference compound], the pIC50 in series [2] (natural enantiomer, 72 hours, read-out: IC50 L1210 natural) is 7.10; in series [2] (unnatural enantiomer, 72 hours, read-out: IC50 L1210 unnatural) it was 6.05.
On to `COC(=O)c1cc2c([nH]1)C(=O)C=C1N(C(=O)c3cc4cc(OC)c(OC)c(OC)c4[nH]3)C[C@H]3CC123` (stereo partly shown) [Compound 1, Duocarmycin SA, reference compound], for which the negative-log IC50 (pIC50) in series [2] (setting [6]) was 11.00; in series [2] (setting [7]), 10.00.
Consider `COc1c(O)c2c(c3cc(C(=O)N4CCc5c4c(O)c(OC)c4[nH]c(C(=O)N6C[C@H]7CC78C6=CC(=O)c6[nH]cc(C)c68)cc54)[nH]c13)CCN2C(N)=O` (stereo partly shown) [Compound 2, CC-1065, reference compound], for which the pIC50 in series [2] (setting [6]) and in series [2] (setting [7]) was 10.70 each time.
As to `O=C(Nc1ccc2[nH]c(C(=O)N3C[C@@H](CCl)c4c3cc(O)c3ccccc43)cc2c1)c1cc2ccccc2[nH]1` [Compound 4, seco-CBI-indole2, reference compound], the “MSP (Mean Survival Period)” value is recorded as over 50 days in series [3] (setting [8]), 6.4 days in series [3] (setting [9]), 3.7 days in series [3] (setting [10]) and 3.0 days in series [3] (setting [11]). Further, the “Surviving Mice (live animals after 366 days)” value in series [3] (setting [8]) is 1/10; in series [3] (setting [9]) it was 0/10; in series [3] (setting [10]) it was 0/10; in series [3] (setting [11]), 0/10. For the same molecule, the “T/C = Treated/Control (MSP) × 100” value in series [3] (setting [8]) is over 284; in series [3] (setting [9]), 36; in series [3] (setting [10]), 21; in series [3] (setting [11]), 17. For the same molecule, the pIC50 in series [2] (Mus musculus, L1210, natural enantiomer, 72 hours, read-out: IC50 L1210 natural) is 10.52; in series [2] (Mus musculus, L1210, unnatural enantiomer, 72 hours, read-out: IC50 L1210 unnatural) it was 9.05.
With `CN1Oc2cc3c(c4cccc(c24)C1=O)C(CCl)CN3C(=O)OC(C)(C)C` (stereo not shown) [Compound 12, tert-Butyl 10-(Chloromethyl)-5-methyl-4-oxo-9,10-dihydro-4H-pyrrolo[3′,2′:5,6]naphtho[1,8-de][1,2]oxazine-8(5H)-carboxylate], the “time unreactive toward NaHCO3” value in series [4] (NaHCO3 in THF, MeOH, DMF/H2O) is “more than 5 days”. Also, the half-life in series [5] is 24 h. The figures for the pIC50 in series [2] (setting [6]) and in series [2] (setting [7]) were 6.07 and under 6.00, respectively.
For the molecule `CC(C)(C)OC(=O)N1CC(CCl)c2c1cc1c3c(cccc23)C(=O)NO1` (stereo not shown) [Compound 15, tert-Butyl 10-(Chloromethyl)-4-oxo-9,10-dihydro-4H-pyrrolo[3′,2′:5,6]naphtho[1,8-de][1,2]oxazine-8(5H)-carboxylate], the half-life in series [4] (NaHCO3 in MeOH, read-out: t1/2 with NaHCO3 (converted)) is 70 h; in series [5] it was 2 h. Further, the “stability to NaHCO3” value in series [4] (NaHCO3 in THF/H2O) is listed as “stable”. Further, the pIC50 in series [2] (setting [6]) is 6.19; in series [2] (setting [7]), under 6.00.
On to `CN1Oc2cc3c(c4cccc(c24)C1=O)[C@H](CCl)CN3C(=O)c1cc2cc(NC(=O)c3cc4ccccc4[nH]3)ccc2[nH]1` [Compound (+)-6, N-(2-(10-(Chloromethyl)-5-methyl-4-oxo-5,8,9,10-tetrahydro-4H-pyrrolo[3′,2′:5,6]naphtho[1,8-de][1,2]oxazine-8-carbonyl)-1H-indol-5-yl)-1H-indole-2-carboxamide], for which the “T/C = Treated/Control (MSP) × 100” value in series [3] (200 μg/kg i.p. on days 1, 5 and 9) is listed as 386; in series [3] (setting [11]) it was over 1142; in series [3] (setting [12]), over 1130; in series [3] (setting [13]) it was over 1500. In addition, the “Surviving Mice (live animals after 366 days)” value is given as 4/10 in series [3] (setting [11]), 4/10 in series [3] (setting [12]) and 6/10 in series [3] (setting [13]). Further, the “delayed toxicity in long term survivors” value in series [3] (366 days (1 year)) is recorded as “no evidence of a delayed toxicity”. Further, the “tolerance at the injection sites” value in series [3] (i.p. administration, versus free drug) was “tolerated at the injection sites of the animals much better than the free drug”. Moreover, the “dosing permitted over that of the free drug” value in series [3] (versus free drug) is recorded as at least 40 fold. Besides, in series [3] (versus free drug), the “in vivo potency relative to the free drug” value is at most 3 fold. Besides, in series [1], the DNA alkylation result was “incapable of alkylating DNA”. Also, in series [2] (L1210), the “difference in potency between Compound (+)-6 and Compound (+)-7” value was 3 fold. The pIC50 in series [2] (setting [6]) is 9.00; in series [2] (read-out: IC50 L1210 natural, natural enantiomer, 72 hours) it was about 9.00.
As for `O=C(Nc1ccc2[nH]c(C(=O)N3C[C@@H](CCl)c4c3cc3c5c(cccc45)C(=O)NO3)cc2c1)c1cc2ccccc2[nH]1` [Compound (+)-7, N-(2-(10-(Chloromethyl)-4-oxo-5,8,9,10-tetrahydro-4H-pyrrolo[3′,2′:5,6]naphtho[1,8-de][1,2]oxazine-8-carbonyl)-1H-indol-5-yl)-1H-indole-2-carboxamide], the “DNA alkylation after thiol activation” value in series [1] (incubated with 1 M L-glutathione at 37° C.) is “results in DNA alkylation; also recorded: slow DNA alkylation reaction”. In addition, the DNA alkylation entry in series [1] is recorded as “No DNA alkylation; also recorded: failed to alkylate DNA”.

The values above are taken from patent US9586974B2, “Cyclic N-acyl O-amino phenol CBI derivative” (THE SCRIPPS RESEARCH LINSTITUTE, priority 2013, dated 2017).
